Reference: patent US4014909A, “Esters of 21-thiol steroids” (priority 1974, dated 1977)
Like-named read-outs stand apart in the source and are kept apart here.

Legend:
thymus = assay type: in vivo, rat (Wistar, young male)
Method: The thymolytic effects have been examined by means of a test, the principle of which is as follows:
The repeated administration of a gluco-corticoid having a systemic activity causes an involution of the defence system of the organism, of which two organs belong to the reticulo-endothelial system, the spleen and the thymus, this latter being the most sensitive to this action, especially with young animals. The thymic involution is estimated by weighing.
The various products were injected daily by the oral or the sub-cutaneous route for four days, to young male rats of Wistar-strain, the initial weight of which was between 45 and 55 grams, distributed at random by groups of ten.
The products under study were administered at a volume of 0.2 ml. per animal for both methods, in suspension in:
Carboxy-methyl-cellulose at 5 % for sub-cutaneous injection;
Gum arabic at 5 % for the oral route.
The animals of the reference groups received the same volume of the corresponding vehicle.
Ninety-six hours after the first administration, the animals were killed, the thymus glands being taken and weighed immediately.
(§1) For each animal, the weight of the thymus has been brought to 100 grams of body weight. The thymolytic activity of the products under study was then expressed as a percentage of regression of the thymus with respect to the animals of the reference group and the ED50 of each product tested was estimated by transferring the percentage inhibition obtained for each dose on semi-logarithmic paper.

granuloma / thymus = experiment: Ratio of the local anti-inflammatory activity to the thymolytic activity; assay type: in vivo, rat (Wistar); conditions: for ED50 anti-proliferative activity / ED50 thymolytic activity (sub-cutaneous route): thymolytic activity determined by sub-cutaneous route; for ED50 anti-proliferative activity / ED50 thymolytic activity (oral route): thymolytic activity determined by the oral route
Method: The DE50 were calculated by transferring the results on to semi-logarithmic paper.
as §1
The ratio is indicated in Tables VII, VIII and IX which follow: […]

hepatic tissue = experiment: Action on the glucidic metabolism: hepatic glycogen after 96 hours treatment; assay type: in vivo, rat (Wistar, male); conditions: 18 h water diet
Source text: The action on the glucidic metabolism was investigated by means of a test, the principle of which is as follows:
Gluco-corticoid reduce the peripheral needs of the organism in glucose, they also increase the synthesis by the liver of glycogen (neo-glycogenesis). Their action on the glucidic metabolism is thus indicated:
(1) By an increase of glycemia;
(2) by a glycogenic overload on the liver and especially by the persistence of the hepatic shock of glycogen in the food-deprived animal, and treated with a glyco-corticoid by comparison with the non-treated animal.
For this study, Wistar male rats were used; the initial weight of which was between 150 and 160 grams, distributed at random in groups of 10.
The products studied were administered by the oral route in suspension in 5 % gum arabic, under a volume of 0.5 ml. per 100 grams, the animals of the reference group receiving the same volume of vehicles under the same condition.
The treatments were carried out daily for four days, a fifth administration being given seven hours before killing the animals, which took place 96 hours after the first administration.
Immediately after killing the animals, a sample of the hepatic tissue was taken from the central lobe and weighed. Immediately afterwards, it was subjected to digestion in 30 % potassium hydroxide in a boiling water-bath for 20 minutes. The glycogen contained in the digestate was then dosed, following the technique described by R. O. Stafford, L. E. Barnes and Coll. (Proc. Soc. Exp. Med. 39/3, 371-374, 1955).
The content of glycogen in the liver samples has been expressed in grams of glycogen per 100 grams of hepatic tissue.
Table XIII which follows indicates the content of glycogen in the liver with the reference animals and the treated animals for 96 hours after a water diet of 18 hours (see procedure (e)).

[1] = Action on the hydro-mineral metabolism: sodium excretion, 96 hours treatment; assay type: in vivo, rat (Wistar, male); conditions: for Sodium excreted, average ± standard error: 96 hours treatment, 5 h urine
Source text: The action on the hydro-mineral metabolism was examined by means of a test, the principle of which is as follows:
The gluco-corticoids are not all free from mineral-corticoid effects (for example hydro-cortisone). These latter are indicated by:
A reduced renal elimination of sodium (sodium retention);
a loss of potassium (potassium leakage), these two effects reproducing the action of aldosteron.
This study has been carried out on male Wistar rats having weights between 180 and 190 grams.
The animals were distributed at random in groups of ten.
The products under study were administered by the oral route in suspension in 5 % gum arabic. The animals of the reference group received the same volume of vehicle under the same conditions.
The treatments were carried out daily for 4 days.
The renal functional exploratory test was effected […] after the first administration of the product tested.
Eighteen hours before the test, the animals were completely deprived of food and water, this being subsequently maintained up to the end of the test.
Immediately before the renal functional test, the animals received an overdose by the oral route of physiological solution equal to 5 % by volume of their body weight.
The urine passed during five hours was collected for each animal in a polyethylene tube.
The concentration of sodium was determined in each sample by flame photometry; the total quantitt excreted was then calculated as a function of the corresponding volume of urine. The values obtained for each group were then compared following the Fisher Student method with the quantity of sodium excreted by the animals of the reference group.
The results obtained with hydro-cortisone acetate and the JO 1016 in the case of a treatment lasting 96 hours following the procedure (f) are indicated in the following Table XVI.

| Compound | ED50 thymolytic activity, oral route (thymus; oral, total dose administered during four days per rat of about 50 g) | ED50 thymolytic activity, sub-cutaneous route (thymus; sub-cutaneous, total dose administered during four days per rat of about 50 g) | ED50 anti-proliferative activity / ED50 thymolytic activity (sub-cutaneous route) (granuloma / thymus) | ED50 anti-proliferative activity / ED50 thymolytic activity (oral route) (granuloma / thymus) | Glycogen in hepatic tissue (hepatic tissue; 25 mg/kg oral) | Glycogen in hepatic tissue (hepatic tissue; 50 mg/kg oral) | Glycogen in hepatic tissue (hepatic tissue; 100 mg/kg oral) | Sodium excreted, average ± standard error ([1]; 16 mg/kg oral) | Sodium excreted, percentage of variation ([1]; 16 mg/kg oral, 96 hours, hydrocortisone acetate 0,001 < p < 0,01, JO 1016 N.S.) | Sodium excreted, average ± standard error ([1]; 32 mg/kg oral) | Sodium excreted, average ± standard error ([1]; 80 mg/kg oral) | Sodium excreted, average ± standard error ([1]; 160 mg/kg oral) | ED50 thymolytic activity, sub-cutaneous route (thymus; rat, in vivo, 5760 min) | ED50 thymolytic activity, oral route (thymus; rat, in vivo, po, 5760 min) | Glycogen in hepatic tissue (hepatic tissue; 2 mg/kg oral) | Glycogen in hepatic tissue (hepatic tissue; 5 mg/kg oral) | Glycogen in hepatic tissue (hepatic tissue; 10 mg/kg oral) | Glycogen in hepatic tissue (hepatic tissue; 20 mg/kg oral) |
| --- | --- | --- | --- | --- | --- | --- | --- | --- | --- | --- | --- | --- | --- | --- | --- | --- | --- | --- |
| CC(C)(C)C(=O)SCC(=O)[C@@]1(O)CC[C@H]2[C@@H]3CCC4=CC(=O)CC[C@]4(C)[C@H]3[C@@H](O)C[C@@]21C [JO 1016, Dihydroxy-11β, 17α thio-21 dioxo-3,20 pregnene-4-21 pivalate] | 400 mg | > 120 mg | 0.0008 | < 0.003 | 0.25 g/100 g | 0.39 g/100 g | 0.42 g/100 g | 0.820 ± 0.1040 Meq | 0,4% | 0.754 ± 0.0465 Meq | 0.684 ± 0.1591 Meq | 0.664 ± 0.0484 Meq |  |  |  |  |  |  |
| CC(=O)OCC(=O)[C@@]1(O)CC[C@H]2[C@@H]3CCC4=CC(=O)CC[C@]4(C)[C@H]3[C@@H](O)C[C@@]21C [Hydrocortisone (acetate), Hydrocortisone acetate, reference compound] |  |  | 1.2 | 0.25 |  | 2.49 g/100 g |  | 0,371 ± 0,0827 Meq |  |  |  |  | 0.68 mg | 4 mg | 0.19 g/100 g | 0.45 g/100 g | 0.46 g/100 g | 1.26 g/100 g |
